What was measured:
[1] = target: T1, Voltage-gated inwardly rectifying potassium channel KCNH2 (Homo sapiens, UniProt Q12809); assay: Displacement of [3H]dofetolide from human ERG channel expressed in HEK293 cells at 37 degC by liquid scintillation assay; assay type: cell-based
Homo sapiens = species: Homo sapiens; assay: Selectivity for human muscarinic M1 receptor over human histamine H1 receptor
Histamine H1 receptor = Histamine H1 receptor (Homo sapiens, UniProt P35367); assay: Displacement of [3H]pyrilamine from human histamine H1 receptor expressed in CHO Flp-In cells by liquid scintillation assay; assay type: cell-based
Cytochrome P450 2D6 = Cytochrome P450 2D6 (Homo sapiens, UniProt P10635); assay: Inhibition of CYP2D6; assay type: ADME
Cytochrome P450 3A4 = Cytochrome P450 3A4 (Homo sapiens, UniProt P08684); assay: Inhibition of CYP3A4; assay type: ADME
[2] = target: T2, Muscarinic acetylcholine receptor M1 (Homo sapiens, UniProt P11229); assay: Displacement of [3H]N-methyl Scopolamine from human muscarinic M1 receptor expressed in CHO Flp-In cells by liquid scintillation assay; assay type: cell-based
T2 sequence (P11229 whole entry): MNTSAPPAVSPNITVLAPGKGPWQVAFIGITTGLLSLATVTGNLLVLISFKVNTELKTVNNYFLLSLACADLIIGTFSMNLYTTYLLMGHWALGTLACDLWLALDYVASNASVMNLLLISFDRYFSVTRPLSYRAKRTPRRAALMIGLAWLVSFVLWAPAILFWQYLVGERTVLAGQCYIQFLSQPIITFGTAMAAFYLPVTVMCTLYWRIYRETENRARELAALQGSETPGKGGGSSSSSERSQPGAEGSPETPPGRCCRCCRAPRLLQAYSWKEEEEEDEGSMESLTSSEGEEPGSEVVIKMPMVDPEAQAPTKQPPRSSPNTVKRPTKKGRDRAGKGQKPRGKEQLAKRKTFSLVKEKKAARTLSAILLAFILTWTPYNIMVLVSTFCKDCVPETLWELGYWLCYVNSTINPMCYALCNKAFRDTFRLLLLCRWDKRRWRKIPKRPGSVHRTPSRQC

Brain [3] = assay: Biodistribution in rat brain assessed per gram of tissue at 1 mg/kg, iv after 2 hrs; assay type: ADME, organism-based; set-up: dose 1 mg/kg, route intravenous; conditions: in vivo
Brain [4] = assay: Biodistribution in rat brain at 1 mg/kg, iv after 2 hrs in presence of triprolidine; assay type: ADME, organism-based; set-up: dose 1 mg/kg, route intravenous; conditions: in vivo
Plasma = assay: Drug level in rat plasma assessed per gram of tissue at 1 mg/kg, iv after 2 hrs; assay type: ADME, organism-based; set-up: dose 1 mg/kg, route intravenous; conditions: in vivo
[5] = Ratio of drug level in brain to plasma in rat at 1 mg/kg, iv after 2 hrs; assay type: ADME, organism-based; set-up: dose 1 mg/kg, route intravenous
[6] = target: T1, Voltage-gated inwardly rectifying potassium channel KCNH2; assay: Inhibition of human ERG channel expressed in HEK293 cells by patch clamp assay; assay type: cell-based
Caco-2 = assay: Ratio of permeability from apical to basolateral side to basolateral to apical side in human Caco-2 cells; assay type: ADME, cell-based
[7] = Apparent permeability across human Caco-2 cell membrane; assay type: ADME, cell-based
[8] = Clearance in Sprague-Dawley rat at 10 mg/kg, po; assay type: ADME, organism-based; set-up: dose 10 mg/kg, route oral; conditions: in vivo
Rattus norvegicus [9] = assay: Antihistamine activity in Wistar rat EEG/EMG model assessed as rapid eye movement sleep stage latency at 30 mg/kg, po administered during activity portion of diurnal cycle 6 hrs after lights-off measured in 4 hrs; assay type: functional
[10] = Bioavailability in Sprague-Dawley rat at 5 mg/kg, iv; assay type: ADME, organism-based; conditions: in vivo, read-out: Drug uptake
Brain [11] = assay: Biodistribution in Sprague-Dawley rat brain at 10 mg/kg, po assessed per gram of tissue after 4 hrs; conditions: in vivo
Rattus norvegicus [12] = assay: Antihistamine activity in Wistar rat EEG/EMG model assessed as non rapid eye movement sleep stage latency at 30 mg/kg, po administered during activity portion of diurnal cycle 6 hrs after lights-off measured in 4 hrs; assay type: functional
Rattus norvegicus [13] = assay: Antihistamine activity in Wistar rat EEG/EMG model assessed as increase in time spent in non rapid eye movement sleep stage at 30 mg/kg, po administered during activity portion of diurnal cycle 6 hrs after lights-off measured in 4 hrs; assay type: functional
[14] = Drug level in Sprague-Dawley rat plasma at 10 mg/kg, po after 4 hrs; conditions: read-out: Drug uptake
Rattus norvegicus [15] = assay: Antihistamine activity in Wistar rat EEG/EMG model assessed as longest 3 NREM bouts at 30 mg/kg, po administered during activity portion of diurnal cycle 6 hrs after lights-off measured in 6 hrs; assay type: functional
Rattus norvegicus [16] = assay: Antihistamine activity in Wistar rat EEG/EMG model assessed as longest 3 REM bouts at 30 mg/kg, po administered during activity portion of diurnal cycle 6 hrs after lights-off measured in 6 hrs; assay type: functional
[17] = Ratio of drug level in brain to plasma in rat at 10 mg/kg, po after 4 hrs; assay type: ADME, organism-based; set-up: dose 10 mg/kg, route oral
Rattus norvegicus [18] = assay: Antihistamine activity in Wistar rat EEG/EMG model assessed as rapid eye movement sleep stage at 30 mg/kg, po administered during activity portion of diurnal cycle 6 hrs after lights-off measured in 4 hrs; assay type: functional
[19] = Ratio of drug level in brain to plasma in rat at 30 mg/kg, po after 4 hrs; assay type: ADME, organism-based; set-up: dose 30 mg/kg, route oral

Cytochrome P450 2D6, sequence (P10635 whole entry): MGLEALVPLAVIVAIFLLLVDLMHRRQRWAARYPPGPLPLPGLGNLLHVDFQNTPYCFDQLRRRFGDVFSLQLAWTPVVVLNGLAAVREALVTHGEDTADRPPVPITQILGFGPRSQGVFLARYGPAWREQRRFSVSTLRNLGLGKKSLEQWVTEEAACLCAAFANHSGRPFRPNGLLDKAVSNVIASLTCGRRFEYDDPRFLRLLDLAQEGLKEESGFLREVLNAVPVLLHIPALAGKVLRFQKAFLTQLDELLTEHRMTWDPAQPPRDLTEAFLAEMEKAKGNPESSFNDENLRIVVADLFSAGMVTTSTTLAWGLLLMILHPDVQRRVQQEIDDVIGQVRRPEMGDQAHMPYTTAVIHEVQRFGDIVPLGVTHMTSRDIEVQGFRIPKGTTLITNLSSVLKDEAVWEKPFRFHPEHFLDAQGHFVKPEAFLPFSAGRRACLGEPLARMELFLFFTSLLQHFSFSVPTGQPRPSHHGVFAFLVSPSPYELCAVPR
Histamine H1 receptor, sequence (P35367 whole entry): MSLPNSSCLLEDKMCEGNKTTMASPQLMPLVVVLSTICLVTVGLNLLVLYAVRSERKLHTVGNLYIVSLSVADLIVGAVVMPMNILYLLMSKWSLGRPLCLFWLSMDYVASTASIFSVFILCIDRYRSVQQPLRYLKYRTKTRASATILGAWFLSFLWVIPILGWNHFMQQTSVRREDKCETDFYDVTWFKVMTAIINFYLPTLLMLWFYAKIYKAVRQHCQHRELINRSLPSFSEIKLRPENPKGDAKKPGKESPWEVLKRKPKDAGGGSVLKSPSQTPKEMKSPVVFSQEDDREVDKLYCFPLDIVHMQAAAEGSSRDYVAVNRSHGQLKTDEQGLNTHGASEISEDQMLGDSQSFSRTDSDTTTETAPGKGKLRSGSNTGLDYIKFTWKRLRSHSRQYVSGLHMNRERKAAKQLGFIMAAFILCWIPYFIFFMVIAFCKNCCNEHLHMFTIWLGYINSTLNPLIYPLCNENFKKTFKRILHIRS
T1 sequence (Q12809 whole entry): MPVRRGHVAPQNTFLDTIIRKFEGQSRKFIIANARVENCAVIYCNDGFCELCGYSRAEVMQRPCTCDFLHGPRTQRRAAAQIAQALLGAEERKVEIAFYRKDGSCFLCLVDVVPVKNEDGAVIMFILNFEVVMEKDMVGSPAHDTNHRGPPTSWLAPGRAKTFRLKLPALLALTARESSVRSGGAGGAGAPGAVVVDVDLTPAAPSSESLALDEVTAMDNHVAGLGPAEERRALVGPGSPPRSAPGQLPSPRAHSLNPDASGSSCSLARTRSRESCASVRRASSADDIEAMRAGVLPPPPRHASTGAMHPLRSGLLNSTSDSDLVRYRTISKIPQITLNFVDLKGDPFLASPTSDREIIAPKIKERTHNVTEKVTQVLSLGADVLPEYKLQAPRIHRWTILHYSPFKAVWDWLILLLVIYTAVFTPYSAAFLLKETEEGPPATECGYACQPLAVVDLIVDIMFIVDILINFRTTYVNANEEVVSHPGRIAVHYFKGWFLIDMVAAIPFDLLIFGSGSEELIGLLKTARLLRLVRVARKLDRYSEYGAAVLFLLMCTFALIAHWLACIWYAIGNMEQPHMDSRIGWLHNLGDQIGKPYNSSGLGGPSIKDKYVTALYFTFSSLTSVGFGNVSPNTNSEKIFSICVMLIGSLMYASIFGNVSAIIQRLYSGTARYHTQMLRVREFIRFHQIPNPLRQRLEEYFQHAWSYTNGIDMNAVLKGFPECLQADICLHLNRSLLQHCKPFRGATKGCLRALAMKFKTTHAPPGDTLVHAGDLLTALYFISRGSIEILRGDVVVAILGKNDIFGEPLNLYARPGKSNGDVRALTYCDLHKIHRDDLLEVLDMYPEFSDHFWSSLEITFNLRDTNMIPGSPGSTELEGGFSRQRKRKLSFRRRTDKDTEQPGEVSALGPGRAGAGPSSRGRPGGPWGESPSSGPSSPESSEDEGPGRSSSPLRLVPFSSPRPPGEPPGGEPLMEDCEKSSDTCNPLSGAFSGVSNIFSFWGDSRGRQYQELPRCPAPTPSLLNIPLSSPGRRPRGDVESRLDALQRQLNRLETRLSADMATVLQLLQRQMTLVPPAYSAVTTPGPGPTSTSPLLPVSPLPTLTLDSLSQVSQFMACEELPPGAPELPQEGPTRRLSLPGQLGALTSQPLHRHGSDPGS
Cytochrome P450 3A4, sequence (P08684 whole entry): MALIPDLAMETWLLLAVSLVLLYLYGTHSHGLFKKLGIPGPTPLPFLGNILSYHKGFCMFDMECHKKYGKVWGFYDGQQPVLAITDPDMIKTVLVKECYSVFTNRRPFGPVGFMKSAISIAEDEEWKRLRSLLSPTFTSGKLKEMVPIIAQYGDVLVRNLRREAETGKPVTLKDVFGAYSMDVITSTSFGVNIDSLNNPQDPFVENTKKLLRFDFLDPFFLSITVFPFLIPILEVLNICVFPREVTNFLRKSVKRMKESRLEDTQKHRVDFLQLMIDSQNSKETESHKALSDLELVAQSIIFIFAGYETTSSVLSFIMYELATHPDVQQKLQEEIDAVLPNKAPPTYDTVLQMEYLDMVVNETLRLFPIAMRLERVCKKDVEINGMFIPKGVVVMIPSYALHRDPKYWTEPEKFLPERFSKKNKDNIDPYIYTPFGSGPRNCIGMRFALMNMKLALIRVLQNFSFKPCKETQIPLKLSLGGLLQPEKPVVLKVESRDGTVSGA

Compound	Ki [1]	Selectivity ratio (Homo sapiens)	Ki (Histamine H1 receptor; read-out: Ki)	IC50 (Cytochrome P450 2D6; read-out: IC50)	IC50 (Cytochrome P450 3A4)	other results
COc1ccc(Cn2c(N3CCC(NCC4CCOCC4)CC3)nc3ccccc32)cc1	1.46 µM	> 1000	0.0141 µM	16.3 µM	> 5 µM	
CN(CCc1ccccc1)C1CCN(c2nc3ccccc3n2Cc2ccc(F)cc2)CC1			0.0024 µM			IC50 (Cytochrome P450 2D6): 0.502 µM; Ki ([2]; read-out: Ki): 0.089 µM
Cc1ccc(/C(=C\CN2CCCC2)c2ccccn2)cc1 [TRIPROLIDINE]						Drug uptake (Brain [3]): 55.6 ng/g; Drug uptake (Brain [4]): 55.6 ng; Drug uptake (Plasma): 7.1 ng/g; Kp at 2 h [5]: 4.5
CN(c1nccc(=O)[nH]1)C1CCN(c2nc3ccccc3n2Cc2ccc(F)cc2)CC1 [MIZOLASTINE]	7.26 µM		0.0027 µM			Drug uptake (Brain [3]): 0 ng/g; IC50 (Cytochrome P450 2D6): > 20 µM; IC50 [6]: 0.441 µM; Drug uptake (Brain [4]): 55.6 ng; Drug uptake (Plasma): 6.3 ng/g; Ki ([2]; read-out: Ki): > 10 µM
CN(CC1CCCCC1)C1CCN(c2nc3ccccc3n2Cc2ccc(F)cc2)CC1				0.36 µM		Ki (Histamine H1 receptor): 0.0044 µM; Ki [2]: 3.86 µM
O=C1CCCCN1C1CCN(c2nc3ccccc3n2Cc2ccc(F)cc2)CC1	> 7.5 µM	> 1000	0.0066 µM	4.35 µM	> 5 µM	Ratio (Caco-2): 0.6; Papp [7]: 12.4 ×10⁻⁶ cm/s
CN(c1ccccc1)C1CCN(c2nc3ccccc3n2Cc2ccc(F)cc2)CC1				> 20 µM		Ki (Histamine H1 receptor): 0.0805 µM; Ki [2]: > 10 µM
Cc1ccc(Cn2c(N3CCC(N(C)C)CC3)nc3ccccc32)cc1	0.073 µM	> 1000	0.0015 µM	7.21 µM	> 5 µM	
CNC1CCN(c2nc3ccccc3n2Cc2ccc(F)cc2)CC1			0.0024 µM			IC50 (Cytochrome P450 2D6): 6.66 µM; Ki ([2]; read-out: Ki): 0.988 µM
CN(C)CCN(C)C1CCN(c2nc3ccccc3n2Cc2ccc(F)cc2)CC1	0.776 µM	> 1000	0.0029 µM	6.13 µM	> 5 µM	
Fc1ccc(Cn2c(N3CCC(NCC4CCOCC4)CC3)nc3ccccc32)cc1	0.426 µM	> 1000	0.0045 µM	12.1 µM	> 5 µM	
CN(C1CCCCC1)C1CCN(c2nc3ccccc3n2Cc2ccc(F)cc2)CC1			0.0028 µM			IC50 (Cytochrome P450 2D6): 2.05 µM; Ki ([2]; read-out: Ki): 2.74 µM
CN(CC1CCOCC1)C1CCN(c2nc3ccccc3n2Cc2ccc(F)cc2)CC1				11 µM	> 5 µM	CL/F [8]: 134 mL/min/kg; Drug uptake (Brain [3]): 104 ng/g; Time (Rattus norvegicus [9]): 110 min; bioavailability [10]: 2%; Drug uptake (Brain [11]): 94 ng/g; Time (Rattus norvegicus [12]): 21 min; Drug uptake (Brain [4]): 39.4 ng; Drug uptake (Plasma): 19.2 ng/g; Activity (Rattus norvegicus [13]): 47.2%; concentration at 4 h [14]: 9 ng/mL; Kp at 2 h [5]: 6.3; Time (Rattus norvegicus [15]): 11 min; Time (Rattus norvegicus [16]): 0.5 min; Kp at 4 h [17]: 10; Activity (Rattus norvegicus [18]): 2.6%
CN(C)C1CCN(c2nc3ccccc3n2Cc2ccc(F)cc2)CC1	0.057 µM	> 1000	0.0018 µM	12.8 µM	> 5 µM	Drug uptake (Brain [3]): 50 ng/g; Drug uptake (Brain [4]): 55.3 ng; Drug uptake (Plasma): 10.9 ng/g; Kp at 2 h [5]: 4.6
Cc1ccc(-c2nc3ccc(C)cn3c2CC(=O)N(C)C)cc1 [ZOLPIDEM]						Time (Rattus norvegicus [9]): 186 min; Time (Rattus norvegicus [12]): 7 min; Activity (Rattus norvegicus [13]): 48.3%; Time (Rattus norvegicus [16]): 1.4 min; Activity (Rattus norvegicus [18]): 0.4%
Fc1ccc(Cn2c(N3CCC(n4ccnc4)CC3)nc3ccccc32)cc1	0.137 µM	> 1000	0.0013 µM	1.12 µM	0.072 µM	
COc1ccc(Cn2c(N3CCC(N(C)C)CC3)nc3ccccc32)cc1			0.0024 µM	6.07 µM	> 5 µM	
Fc1ccc(Cn2c(N3CCC(n4cccn4)CC3)nc3ccccc32)cc1			0.0183 µM	1.48 µM	> 5 µM	
Fc1ccc(Cn2c(N3CCC(n4cccc4)CC3)nc3ccccc32)cc1	0.157 µM	> 1000	0.0593 µM	1.53 µM	> 5 µM	
CN(Cc1ccccc1)C1CCN(c2nc3ccccc3n2Cc2ccc(F)cc2)CC1			0.0036 µM			IC50 (Cytochrome P450 2D6): 0.805 µM; Ki ([2]; read-out: Ki): 3.58 µM
Cc1cnn(C2CCN(c3nc4ccccc4n3Cc3ccc(F)cc3)CC2)c1						Kp at 4 h [19]: 2.3
COc1ccc(Cn2c(N3CCC(n4cc(C)cn4)CC3)nc3ccccc32)cc1	> 5 µM	> 1000	0.0071 µM	7.32 µM	> 5 µM	
COc1ccc(Cn2c(N3CCC(N(C)CC4CCOCC4)CC3)nc3ccccc32)cc1	0.102 µM	> 1000	0.0141 µM	8.18 µM	> 5 µM	
CN(c1ncccn1)C1CCN(c2nc3ccccc3n2Cc2ccc(F)cc2)CC1			0.0752 µM			IC50 (Cytochrome P450 2D6): 1.04 µM; Ki ([2]; read-out: Ki): > 10 µM
COCCN(C)C1CCN(c2nc3ccccc3n2Cc2ccc(F)cc2)CC1			0.0022 µM	4.44 µM	> 5 µM	
CN(C1CCOCC1)C1CCN(c2nc3ccccc3n2Cc2ccc(F)cc2)CC1				6.36 µM		Drug uptake (Brain [3]): 55 ng/g; Ki (Histamine H1 receptor): 0.0033 µM; Drug uptake (Brain [4]): 39.4 ng; Drug uptake (Plasma): 18.1 ng/g; Ki [2]: 14.7 µM; Kp at 2 h [5]: 3.5
CN(CCO)C1CCN(c2nc3ccccc3n2Cc2ccc(F)cc2)CC1	0.116 µM	> 1000	0.0032 µM	35.1 µM	> 5 µM	
